Results on one compound are retold here after patent US20220401385A1, “Combination Therapy Based on PD-1 Signaling Inhibitors” (Kyoto University, priority 2019, published 2022).

Test [1] has as its system CD8+ T cells. The experiment in a line: Flow cytometry of draining lymph node and tumor-infiltrating CD8+ T cells of treated MC38 mice. Format: in vivo, C57BL/6 mice. How it is done:
FIG. 1-1 a) CD8^+ T cells or CD3^+ T cells were isolated from mice, and 2×10^5 cells were stimulated with CD3/CD28 beads in 96-well U plates. After 24 hours and 48 hours, cells and culture supernatant were collected, followed by measurement of spermidine (SPD) concentration by mass spectrometry. […] Ten days after inoculation, PD-L1 antibody (2 mg/kg), PD-L1 antibody+SPD (2 mg/kg), or SPD alone was administered. Subsequently, PD-L1 antibody was administered 4 times at a regular interval of 5 days, and SPD was administered 8 times at a regular interval of 3 days. Tumor growth curve and survival curve are shown. c) Draining lymph nodes (DLNs) of mice were isolated 13 days after tumor inoculation, and stained with antibodies to CD8, CD44 and CD62L. The number of cells in draining lymph node (cells/DLN) in each treatment group is shown at the left side. After being gated, CD8^+ T cells were fractionated with CD44 and CD62L into P1 to P4 cell populations. Percentages and cell numbers of P1 to P4 in each treatment group are shown. d) Tumor was isolated 13 days after tumor inoculation and treated with collagenase. Percentages and numbers per mg tumor of tumor-infiltrating CD8^+ CD45.2^+ cells are shown. For statistical analysis, ANOVA was used. * p<0.05, ** p<0.01, *** p<0.001, **** p<0.0001.
FIG. 2-1 a) Treated mice were analyzed for draining lymph nodes and the inside of tumor. Briefly, draining lymph nodes of mice were isolated 13 days after tumor inoculation, and stained with antibodies to CD8 and Sca-1. FACS diagram and percentages of Sca-1^+ cells in CD8^+ T cells are shown. b) CD8^+ T cells in isolated draining lymph nodes were stimulated with CD3/CD28 antibody beads. After 24 hours, cell proliferation was examined by means of ^3H uptake. At the same time, IFN-γ concentration in culture supernatant was measured. c) Tumor from the same mice as described above was treated with collagenase. Then, expression rates of PD-1 and Tim3 in tumor-infiltrating CD8^+ T cells were analyzed. d) Oxygen consumption rate (OCR) and extracellular acidification rate (ECAR) of draining lymph node CD8^+ T cells were measured with a Seahorse analyzer (N=3 wells). For statistical analysis, ANOVA was used. * p<0.05, ** p<0.01, *** p<0.001, **** p<0.0001.
For analyzing draining lymph nodes, cells from axillary, brachial, and inguinal lymph nodes on the right side of tumor-inoculated mice were harvested and mixed. Averaged cell numbers per one lymph node were used as absolute cell numbers. For tumor analysis, tumor tissues were minced into 2- to 3-mm pieces with scissors and digested with collagenase type IV (Thermo Fisher Scientific) using a gentle MACS Dissociator (Miltenyi Biotec). The numbers of tumor cells per mg were used as absolute numbers.
The following antibodies recognizing the indicated antigens were used: CD44 (1M7), CD45.2 (104), CD45.1 (A20), CD8 (53-6.7), CD62L (MEL-14) and Sca-1 (D7) from BioLegend. All flow cytometry experiments were performed on FACS Canto II (BD Biosciences) and analyzed using FlowJo software (FLOWJO, LLC). Apoptosis assay was performed with PI (Sigma) and Annexin (BioLegend) following the instructions on the kits.

The test system of another test is CD44 high CD8+ T cells. The test can be described thus: Cell proliferation by 3H uptake in vitro, CD44 high cells. Format: cell-based, mice. The settings on record: SPD 0.2 μM, 24 hours. How it is done:
FIG. 4 CD8^+ T cells were isolated from the spleen of mice without tumor inoculation, and further isolated into CD44^+ (CD44 high) and CD44^− (CD44 low) cell populations. a) CD44 low cells were simulated with CD3/CD28 antibody beads and SPD (0.2 μM). After 30 minutes, 1 hour, 2 hours and 72 hours, OCR was measured with a Seahorse analyzer. b) At the same time, total ATP production and glycolytic pathway-derived or mitochondrial activity-derived ATP production were calculated at 30-minute, 1-hour and 2-hour. c) CD44 low cells (2×10^5 cells) were stimulated with CD3/CD28 antibody beads and SPD (0.2 μM). After 24 hours, cell proliferation was examined by means of 3H uptake. d) Spare respiratory capacity (SRC) was calculated from the OCR measurement after 72 hours in a), and results with and without SPD were compared. e) CD44 low cells were stimulated with CD3/CD28 antibody beads and SPD (0.2 μM). After 24 hours, frequencies between apoptotic and viable cells were calculated by PI and Annexin staining. f-j) CD44 high cells were analyzed under the same conditions and by the same methods as described in a-e) above. As regards statistical analysis, t-test was used for comparison of two groups, and ANOVA was used for comparison of three or more groups. * p<0.05, ** p<0.01, *** p<0.001, **** p<0.0001.

Test [2] concerns CD8+ T cells. The test can be described thus: Tumor-infiltrating CD8+ T cells in aged MC38 mice. The settings on record: 56-week old mice; combination with SPD; 13 days after tumor inoculation. Format: in vivo. How it is done: FIG. 7 MC38 cells (5×10^5) were intradermally inoculated into 56-week old mice, which were treated along with the treatment schedule described in FIG. 1. PD-L1 antibody (2 mg/kg) and SPD (2 mg/kg) were used. a) Tumor growth curve and survival curve are shown. b) The frequency of CD8^+ T cells among lymphocytes infiltrating into tumor (in CD45^+ gate) and the absolute number of CD8^+ T cells per mg tumor 13 days after tumor inoculation are shown. c) CD8^+ T cells were isolated from spleen cells on the same schedule as b) and cultured for 20 hours under the stimulation with CD3/CD28. Cell proliferation was examined by means of ^3H uptake. d) CD8^+ T cells were isolated from draining lymph nodes on the same schedule as b) and glycolytic pathway-derived or mitochondrial metabolism-derived ATP production was calculated by Seahorse. e) Spare respiratory capacity (SRC) was also calculated in the experiment (d).
It is known from mouse model experiments that the effect of PD-1 inhibitory antibody therapy decreases in aged mice due to their decreased immunity. […] CD8^+ T cells were isolated from draining lymph nodes 13 days after tumor inoculation and glycolytic pathway-derived or mitochondrial metabolism-derived ATP production was calculated by Seahorse. Spare respiratory capacity (SRC) was also calculated. […]

Setting [3] is: SPD + PD-1 inhibitory antibody, 13 days after tumor inoculation.
Where [4] appears, read: combination therapy, 13 days after tumor inoculation.

The structures appear in SMILES notation.

Regarding `NCCCCNCCCN` [SPD, spermidine], in the test with CD8+ T cells [1] (setting [3]), the “absolute number of effector T cells (P3) in draining lymph nodes” value is “increase”, the “cell number of the draining lymph nodes” value is given as “increase” and the “frequency of effector T cells (P3) in draining lymph nodes” value is given as “increase”. In the test on CD8+ T cells [1] (combination therapy using SPD), the “expression of Sca-1 (activation marker) in draining lymph node CD8+ T cells” value was “enhanced” and the “frequency of exhausted CD8+ T cells (CD8+ PD-1+ Tim-3+), tumor-infiltrating” value is “decreased significantly”. Besides, in the test on CD8+ T cells [1] (setting [4]), the “frequency of tumor-infiltrating CD8+ T cells” value is “increased” and the “number of tumor-infiltrating CD8+ T cells” value is reported as “increased”. Moreover, in the test on CD44 high CD8+ T cells, the cell proliferation result was “not found to increase”. Also, the “number of CD8+ T cells in lymphocytes infiltrating into tumor” value in the test with CD8+ T cells [2] was “increase”.
